Source: ChEMBL document CHEMBL1135176, “Combinatorial synthesis and biological evaluation of isoxazole-based libraries as antithrombotic agents” (2002)

Key:
Mus musculus [1] = test: In vivo antithrombotic activity in Swiss mice was determined when the compound was administered at 30 umol/kg orally 1 hour prior to challenge; type: functional
Mus musculus [2] = test: In vivo increase in the bleeding time was determined when administered at 30 umol/kg orally 1 hour prior to challenge; type: functional

Compound	Protection (Mus musculus [1]) [%]	Increase (Mus musculus [2]) [%]
NCCCCC(C(N)=O)N(Cc1ccc([N+](=O)[O-])cc1)Cc1cc(-c2ccccc2)on1 (configuration not stated)	30	–
NC(=O)C(Cc1c[nH]cn1)N(Cc1ccccc1)Cc1cc(-c2ccccc2)on1 (configuration not stated)	50	81
Cc1ccc(-c2cc(CN(Cc3ccccc3)C(Cc3ccc(O)cc3)C(N)=O)no2)cc1 (configuration not stated)	60	20
NC(=O)C(Cc1ccc(O)cc1)N(Cc1ccc(Br)cc1)Cc1cc(-c2ccccc2)on1 (configuration not stated)	20	–
CC(C)=CCC(C(N)=O)N(Cc1ccccc1)Cc1cc(-c2ccccc2)on1 (configuration not stated)	30	–
Cc1ccc(-c2cc(CN(Cc3cccc([N+](=O)[O-])c3)C(Cc3c[nH]cn3)C(N)=O)no2)cc1 (configuration not stated)	60	40
NC(=O)C(Cc1ccccc1)N(Cc1ccccc1)Cc1cc(-c2ccccc2)on1 (configuration not stated)	30	–
N#Cc1ccc(CN(Cc2cc(-c3ccccc3Cl)on2)C(Cc2ccc(O)cc2)C(N)=O)cc1 (configuration not stated)	40	–
Cc1ccc(-c2cc(CN(Cc3ccccc3)C(CCCN=C(N)N)C(N)=O)no2)cc1 (configuration not stated)	10	–
Cc1ccc(-c2cc(CN(Cc3cccc(C)c3)C(Cc3ccccc3)C(N)=O)no2)cc1 (configuration not stated)	50	0
Cc1ccc(CN(Cc2cc(-c3ccccc3)on2)C(Cc2c[nH]cn2)C(N)=O)cc1 (configuration not stated)	40	–
NC(=O)CCC(C(N)=O)N(Cc1ccc(Br)cc1)Cc1cc(-c2ccccc2Cl)on1 (configuration not stated)	20	–
NC(=O)C(Cc1ccccc1)N(Cc1ccccc1)Cc1cc(-c2ccccc2Cl)on1 (configuration not stated)	30	–
N#Cc1ccc(CN(Cc2cc(-c3ccccc3)on2)C(CCC(N)=O)C(N)=O)cc1 (configuration not stated)	70	62
NC(=O)C(CO)N(Cc1ccccc1)Cc1cc(-c2ccccc2)on1 (configuration not stated)	60	58
Cc1ccc(-c2cc(CN(CC(N)=O)Cc3ccccc3)no2)cc1	20	–
NC(=O)C(Cc1ccccc1)N(Cc1ccc(Br)cc1)Cc1cc(-c2ccccc2)on1 (configuration not stated)	20	–
Cc1ccc(-c2cc(CN(Cc3ccc(Br)cc3)C(CCCN=C(N)N)C(N)=O)no2)cc1 (configuration not stated)	40	–
Cc1ccc(-c2cc(CN(Cc3ccc(C#N)cc3)C(CCCCN)C(N)=O)no2)cc1 (configuration not stated)	40	–
Cc1ccc(-c2cc(CN(Cc3ccc(C#N)cc3)C(Cc3ccc(O)cc3)C(N)=O)no2)cc1 (configuration not stated)	20	–
NC(=O)C(Cc1ccccc1)N(Cc1ccc([N+](=O)[O-])cc1)Cc1cc(-c2ccccc2Cl)on1 (configuration not stated)	20	–
N#Cc1ccc(CN(Cc2cc(-c3ccccc3Cl)on2)C(Cc2ccccc2)C(N)=O)cc1 (configuration not stated)	50	0
N=C(N)NCCCC(C(N)=O)N(Cc1ccc(Br)cc1)Cc1cc(-c2ccccc2)on1 (configuration not stated)	80	25

Compound	Protection (Mus musculus [1]) [%]	Increase (Mus musculus [2]) [%]
Cc1ccc(-c2cc(CN(Cc3ccccc3)C(CCCCN)C(N)=O)no2)cc1 (configuration not stated)	40	–
N#Cc1ccc(CN(Cc2cc(-c3ccccc3Cl)on2)C(CO)C(N)=O)cc1 (configuration not stated)	10	–
CC(C)=CCC(C(N)=O)N(Cc1ccc(C#N)cc1)Cc1cc(-c2ccccc2)on1 (configuration not stated)	20	–
Cc1ccc(-c2cc(CN(Cc3ccccc3)C(CO)C(N)=O)no2)cc1 (configuration not stated)	60	79
NC(=O)C(Cc1ccc(O)cc1)N(Cc1ccc(Br)cc1)Cc1cc(-c2ccccc2Cl)on1 (configuration not stated)	60	–
Cc1ccc(-c2cc(CN(Cc3cccc([N+](=O)[O-])c3)C(CCCCN)C(N)=O)no2)cc1 (configuration not stated)	20	–
Cc1ccc(-c2cc(CN(Cc3cccc(Br)c3)C(CCCCN)C(N)=O)no2)cc1 (configuration not stated)	40	–
N=C(N)NCCCC(C(N)=O)N(Cc1ccccc1)Cc1cc(-c2ccccc2Cl)on1 (configuration not stated)	40	–
N#Cc1ccc(CN(Cc2cc(-c3ccccc3)on2)C(CO)C(N)=O)cc1 (configuration not stated)	30	–
NC(=O)C(CO)N(Cc1ccc(Br)cc1)Cc1cc(-c2ccccc2Cl)on1 (configuration not stated)	70	50
Cc1ccc(-c2cc(CN(Cc3ccc(C#N)cc3)C(CO)C(N)=O)no2)cc1 (configuration not stated)	60	41
CC(C)=CCC(C(N)=O)N(Cc1ccc(C)cc1)Cc1cc(-c2ccccc2)on1 (configuration not stated)	20	–
N#Cc1ccc(CN(Cc2cc(-c3ccccc3)on2)C(Cc2c[nH]cn2)C(N)=O)cc1 (configuration not stated)	50	80
NC(=O)C(Cc1c[nH]cn1)N(Cc1ccc([N+](=O)[O-])cc1)Cc1cc(-c2ccccc2)on1 (configuration not stated)	60	30
Cc1ccc(CN(Cc2cc(-c3ccccc3)on2)C(CCCCN)C(N)=O)cc1 (configuration not stated)	20	–
N#Cc1ccc(CN(Cc2cc(-c3ccccc3)on2)C(CCCNC(=N)N)C(N)=O)cc1 (configuration not stated)	50	31
N#Cc1ccc(CN(Cc2cc(-c3ccccc3Cl)on2)C(CCCNC(=N)N)C(N)=O)cc1 (configuration not stated)	90	87.5
NC(=O)C(Cc1c[nH]cn1)N(Cc1cccc(Br)c1)Cc1cc(-c2ccccc2)on1 (configuration not stated)	40	–
Cc1ccc(-c2cc(CN(Cc3cccc(Br)c3)C(Cc3c[nH]cn3)C(N)=O)no2)cc1 (configuration not stated)	10	–
NC(=O)C(CO)N(Cc1ccc(Br)cc1)Cc1cc(-c2ccccc2)on1 (configuration not stated)	30	–
Cc1ccc(-c2cc(CN(Cc3ccc(C#N)cc3)C(CCCN=C(N)N)C(N)=O)no2)cc1 (configuration not stated)	40	–
CC(C)=CCC(C(N)=O)N(Cc1cccc(C)c1)Cc1cc(-c2ccc(C)cc2)on1 (configuration not stated)	60	–
CC(=O)Oc1ccccc1C(=O)O [ASPIRIN]	40	110
